Measurements as given in paper PMC11110157, “Biosynthesis of the bacterial antibiotic 3,7-dihydroxytropolone through enzymatic salvaging of catabolic shunt products” (Chemical Science, 2024).

Tests used:
TrlE [1] = target: T1, TrlE (Streptomyces cyaneofuscatus, UniProt A0A2S1JZI9); assay: differential scanning fluorimetry; type: binding; conditions: substrate analogue; thermal shift
T1 construct: heterologously produced and purified; crystal structure model residues 1-400
T1 sequence (A0A2S1JZI9 1-400): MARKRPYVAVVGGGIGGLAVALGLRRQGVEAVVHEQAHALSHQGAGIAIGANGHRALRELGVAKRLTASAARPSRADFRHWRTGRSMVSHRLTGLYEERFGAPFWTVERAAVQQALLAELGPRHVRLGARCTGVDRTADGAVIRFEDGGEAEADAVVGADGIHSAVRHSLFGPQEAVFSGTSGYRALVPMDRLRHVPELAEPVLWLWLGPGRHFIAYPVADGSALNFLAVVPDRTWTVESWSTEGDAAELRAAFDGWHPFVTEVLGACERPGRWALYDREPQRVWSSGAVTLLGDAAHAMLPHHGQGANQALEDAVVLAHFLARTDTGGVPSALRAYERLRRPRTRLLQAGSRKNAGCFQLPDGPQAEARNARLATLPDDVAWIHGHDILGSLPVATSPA

TrlD [2] = target: T2, TrlD (Streptomyces cyaneofuscatus, UniProt A0A2S1JZG9); assay: flavin reductase assay, cofactor specificity; type: biochemical; conditions: preferred over NADPH
T2 construct: heterologously produced and purified; fraction co-purified with FAD
T2 sequence (A0A2S1JZG9 1-185): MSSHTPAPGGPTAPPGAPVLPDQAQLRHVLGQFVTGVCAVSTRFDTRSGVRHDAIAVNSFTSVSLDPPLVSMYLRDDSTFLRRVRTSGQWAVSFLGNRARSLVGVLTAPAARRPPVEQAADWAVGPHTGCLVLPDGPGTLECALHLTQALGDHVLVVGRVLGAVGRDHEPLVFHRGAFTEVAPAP

TrlD [3] = target: T2, TrlD; assay: co-purification with bound flavin; type: binding; conditions: FAD preferred over FMN as flavin substrate
TrlE [4] = target: T1, TrlE; assay: X-ray crystallography ([…] A); type: binding; conditions: FAD non-covalently bound, IN conformation
TrlE [5] = target: T3, TrlE (Streptomyces cyaneofuscatus, UniProt A0A2S1JZI9, H213E); assay: substrate consumption and product formation assay; type: biochemical; conditions: strongly reduced activity, minor product formation
T3 construct: heterologously produced and purified; crystal structure model residues 1-400
T3 sequence (A0A2S1JZI9 entry or part of it H213E): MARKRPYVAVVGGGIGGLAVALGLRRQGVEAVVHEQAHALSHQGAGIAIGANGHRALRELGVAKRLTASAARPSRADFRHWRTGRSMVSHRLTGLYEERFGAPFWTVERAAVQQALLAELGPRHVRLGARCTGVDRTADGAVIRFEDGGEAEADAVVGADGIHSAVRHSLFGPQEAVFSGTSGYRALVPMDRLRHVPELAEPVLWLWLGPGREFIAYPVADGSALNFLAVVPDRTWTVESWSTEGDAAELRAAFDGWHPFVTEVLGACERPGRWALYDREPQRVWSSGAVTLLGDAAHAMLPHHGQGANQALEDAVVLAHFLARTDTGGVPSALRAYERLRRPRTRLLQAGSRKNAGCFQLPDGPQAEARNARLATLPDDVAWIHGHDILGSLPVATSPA

TrlE [6] = target: T4, TrlE (Streptomyces cyaneofuscatus, UniProt A0A2S1JZI9, H213Q); assay: substrate consumption and product formation assay; type: biochemical; conditions: strongly reduced activity, minor product formation
T4 construct: heterologously produced and purified; crystal structure model residues 1-400
T4 sequence (A0A2S1JZI9 entry or part of it H213Q): as the sequence (A0A2S1JZI9 entry or part of it H213E) above, with E213Q counted along it

TrlE [7] = target: T5, TrlE (Streptomyces cyaneofuscatus, UniProt A0A2S1JZI9, Y217F); assay: substrate consumption and product formation assay; type: biochemical; conditions: strongly reduced activity
T5 construct: heterologously produced and purified; crystal structure model residues 1-400
T5 sequence (A0A2S1JZI9 entry or part of it Y217F): as the sequence (A0A2S1JZI9 entry or part of it H213E) above, with E213H, Y217F counted along it

Structure (SMILES): O=C(O)c1ccccc1O [salicylate]
- differential scanning fluorimetry (TrlE [1]): binding of these compounds to TrlE was confirmed by differential scanning fluorimetry (DSF)

Structure (SMILES): NC(=O)C1=CN([C@@H]2O[C@H](COP(=O)(O)OP(=O)(O)OC[C@H]3O[C@@H](n4cnc5c(N)ncnc54)[C@H](O)[C@@H]3O)[C@@H](O)[C@H]2O)C=CC1 [NADH]
- flavin reductase assay, cofactor specificity (TrlD [2]): TrlD preferred FAD and NADH over FMN and NADPH, respectively

Structure (SMILES): Cc1cc2nc3c(=O)[nH]c(=O)nc-3n(C[C@H](O)[C@H](O)[C@H](O)COP(=O)(O)OP(=O)(O)OC[C@H]3O[C@@H](n4cnc5c(N)ncnc54)[C@H](O)[C@@H]3O)c2cc1C [FAD]
- co-purification with bound flavin (TrlD [3]): a fraction of TrlD was co-purified with bound FAD
- X-ray crystallography (2.5 A) (TrlE [4]): The non-covalently bound FAD observed in this structure is present in the “IN” conformation

Structure (SMILES): O=C(O)c1cccccc1=O [tropone-2-carboxylate]
- differential scanning fluorimetry (TrlE [1]): binding of these compounds to TrlE was confirmed by differential scanning fluorimetry (DSF)

Structure (SMILES): O=C(O)C1=C(O)CC=CC=C1 [compound 7, dihydrotropone-2-carboxylate]
- substrate consumption and product formation assay (TrlE [5]): For both H213E and H213Q variants, minor product formation was still observed
- substrate consumption and product formation assay (TrlE [6]): For both H213E and H213Q variants, minor product formation was still observed
- substrate consumption and product formation assay (TrlE [7]): the other variants showed strongly reduced catalytic activity, with slowed substrate consumption and product formation
